Melting point data for twelve molecules are collected here from US7884127B2, “Inhibitors of cyclin dependent kinases and their use” (Pirimal Life Sciences Ltd., priority 2002, dated 2011).

A word on the melting point: it is the temperature of the solid-liquid transition.

Consider `CN1CC[C@@H](c2c(O)cc(O)c3c(=O)cc(-c4ccc([N+](=O)[O-])cc4Br)oc23)[C@@H]1CO` [Example 42, (+)-trans-2-(2-Bromo-4-nitro-phenyl)-5,7-dihydroxy-8-(2-hydroxymethyl-1-methyl-pyrrolidin-3-yl)-chromen-4-one], for which the melting point stood at 186 °C.
To `CN1CC[C@@H](c2c(O)cc(O)c3c(=O)cc(-c4cc(F)ccc4Cl)oc23)[C@@H]1CO` (racemic) [Example 23, (±)-trans-2-(2-Chloro-5-fluoro-phenyl)-5,7-dihydroxy-8-(2-hydroxymethyl-1-methyl-pyrrolidin-3-yl)-chromen-4-one] belongs 253 to 254 °C; to `Cc1ccc(Cl)c(-c2cc(=O)c3c(O)cc(O)c([C@@H]4CCN(C)[C@H]4CO)c3o2)c1` [Example 38, (+)-trans-2-(2-Chloro-5-methyl-phenyl)-5,7-dihydroxy-8-(2-hydroxymethyl-1-methyl-pyrrolidin-3-yl)-chromen-4-one], 206 to 208 °C.
As for `CN1CC[C@@H](c2c(O)cc(O)c3c(=O)cc(-c4ccccc4I)oc23)[C@@H]1CO` [Example 19, (+)-trans-5,7-Dihydroxy-8-(2-hydroxymethyl-1-methyl-pyrrolidin-3-yl)-2-(2-iodo-phenyl)-chromen-4-one], the figure is 233 to 235 °C; as for `CN1CC[C@@H](c2c(O)cc(O)c3c(=O)cc(-c4cc(F)ccc4Cl)oc23)[C@@H]1CO.CS(=O)(=O)O` (racemic) [Example 25, (±)-trans-2-(2-Chloro-5-fluoro-phenyl)-5,7-dihydroxy-8-(2-hydroxymethyl-1-methyl-pyrrolidin-3-yl)-chromen-4-one methane sulfonate], 192 to 193 °C.
As for `COc1cc(OC)c2c(=O)cc(-c3ccccc3Cl)oc2c1[C@@H]1CCN(C)[C@H]1CO` [Example 13, (+)-trans-2-(2-Chloro-phenyl)-8-(2-hydroxymethyl-1-methyl-pyrrolidin-3-yl)-5,7-dimethoxy-chromen-4-one], the figure is 91 to 93 °C.
Molecule `Cc1cc(C#N)ccc1-c1cc(=O)c2c(O)cc(O)c([C@@H]3CCN(C)[C@H]3CO)c2o1` [Example 60, (+)-trans-4-[5,7-Dihydroxy-8-(2-hydroxymethyl-1-methyl-pyrrolidin-3-yl)-4-oxo-4H-chromen-2-yl]-3-methyl-benzonitrile] gave a melting point of 145 to 147 °C.
As for `CN1CC[C@@H](c2c(O)cc(O)c3c(=O)cc(-c4ccccc4Cl)oc23)[C@@H]1C(=O)O` (racemic) [Example 144, (±)-trans-3-[2-(2-Chloro-phenyl)-5,7-dihydroxy-4-oxo-4H-chromen-8-yl]-1-methyl-pyrrolidine-2-carboxylic acid], the figure is 295 to 297 °C; as for `CCCN1CC[C@@H](c2c(O)cc(O)c3c(=O)cc(-c4ccccc4Cl)oc23)[C@@H]1CO` (racemic) [Example 132, (±)-trans-2-(2-Chloro-phenyl)-5,7-dihydroxy-8-(2-hydroxymethyl-1-propyl-pyrrolidin-3-yl)-chromen-4-one], 94 to 96 °C.
To `CN1CC[C@@H](c2c(O)cc(O)c3c(=O)cc(-c4ccccc4Cl)oc23)[C@@H]1CS` (racemic) [Example 115, (±)-trans-2-(2-Chloro-phenyl)-5,7-dihydroxy-8-(2-mercaptomethyl-1-methyl-pyrrolidin-3-yl)-chromen-4-one] belongs 205 to 206 °C; to `CN1CC[C@@H](c2c(O)cc(O)c3c(=O)cc(-c4cccnc4Cl)oc23)[C@@H]1CO` [Example 90, (+)-trans-2-(2-Chloro-pyridin-3-yl)-5,7-dihydroxy-8-(2-hydroxymethyl-1-methyl-pyrrolidin-3-yl)-chromen-4-one], 125 to 127 °C; to `COc1cc(OC)c2c(=O)cc(-c3ccc(C(F)(F)F)cc3)oc2c1[C@@H]1CCN(C)[C@H]1CO` (racemic) [Example 62, (±)-trans-8-(2-Hydroxymethyl-1-methyl-pyrrolidin-3-yl)-5,7-dimethoxy-2-(4-trifluoromethyl-phenyl)-chromen-4-one], 114 to 115 °C.
